pIC50, pKd, pKi: −log10 of the molar value.
Experiments:
[1] = target: T1, YEATS domain-containing protein 4 (Homo sapiens, UniProt O95619); assay: Binding affinity to human his-tagged recombinant YEATS4 expressed in Escherichia coli assessed as inhibition constant using biotin tagged lysine 27-crotonylated histone H3 peptide as substrate preincubated for 20 mins followed by substrate addition measured after 30 mins by FRET analysis
[2] = Cytotoxicity against human THLE cells assessed as inhibition of cell growth by CellTiter-Glo assay; type: toxicity, cell-based
Homo sapiens [3] = species: Homo sapiens; assay: Selectivity ratio of Ki for human recombinant YEATS3 to Ki for human recombinant YEATS4
[4] = target: Voltage-gated inwardly rectifying potassium channel KCNH2 (Homo sapiens, UniProt Q12809); assay: Inhibition of hERG assessed as inhibition constant by patch-clamp assay; type: toxicity
Voltage-gated inwardly rectifying potassium channel KCNH2, sequence (Q12809 whole entry): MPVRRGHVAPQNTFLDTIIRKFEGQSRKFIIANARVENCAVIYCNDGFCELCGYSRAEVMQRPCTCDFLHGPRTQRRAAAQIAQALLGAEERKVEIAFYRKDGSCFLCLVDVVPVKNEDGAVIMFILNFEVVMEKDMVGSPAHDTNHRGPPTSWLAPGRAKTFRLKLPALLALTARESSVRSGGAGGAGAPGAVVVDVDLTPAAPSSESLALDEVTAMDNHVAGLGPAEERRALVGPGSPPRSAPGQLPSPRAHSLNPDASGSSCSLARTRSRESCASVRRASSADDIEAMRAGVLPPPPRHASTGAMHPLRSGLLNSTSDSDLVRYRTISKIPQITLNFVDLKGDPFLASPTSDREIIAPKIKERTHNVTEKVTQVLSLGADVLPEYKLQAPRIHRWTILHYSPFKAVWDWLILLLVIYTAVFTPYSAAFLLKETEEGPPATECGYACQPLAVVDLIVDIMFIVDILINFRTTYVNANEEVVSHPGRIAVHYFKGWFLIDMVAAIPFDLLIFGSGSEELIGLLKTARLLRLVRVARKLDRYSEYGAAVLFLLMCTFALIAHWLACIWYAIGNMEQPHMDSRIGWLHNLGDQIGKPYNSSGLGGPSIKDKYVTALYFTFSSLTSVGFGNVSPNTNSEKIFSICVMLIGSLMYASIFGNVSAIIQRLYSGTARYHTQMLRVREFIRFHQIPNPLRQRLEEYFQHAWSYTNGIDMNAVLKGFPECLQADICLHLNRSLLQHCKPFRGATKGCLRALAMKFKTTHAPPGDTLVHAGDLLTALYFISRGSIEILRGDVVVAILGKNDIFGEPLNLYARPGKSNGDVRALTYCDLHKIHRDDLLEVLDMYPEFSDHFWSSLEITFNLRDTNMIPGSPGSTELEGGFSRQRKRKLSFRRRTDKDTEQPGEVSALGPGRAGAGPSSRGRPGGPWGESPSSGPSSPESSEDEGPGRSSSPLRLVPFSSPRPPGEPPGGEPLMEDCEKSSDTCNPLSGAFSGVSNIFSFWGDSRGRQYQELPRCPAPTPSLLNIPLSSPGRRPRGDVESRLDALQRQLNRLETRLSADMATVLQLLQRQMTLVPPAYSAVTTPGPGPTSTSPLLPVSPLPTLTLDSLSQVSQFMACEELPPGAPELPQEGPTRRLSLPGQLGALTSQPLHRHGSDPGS

[5] = Intrinsic clearance in human hepatocytes assessed per million cells; type: ADME, cell-based, Hepatocyte; conditions: read-out: CLH
[6] = target: T1, YEATS domain-containing protein 4; assay: Binding affinity to C-terminal biotin-tagged YEATS4 (unknown origin) by SPR analysis
[7] = Apparent permeability in dog RRCK cells; type: ADME, cell-based, Canis lupus familiaris, MDCKII-LE; conditions: MDCK
[8] = target: T1, YEATS domain-containing protein 4; assay: Inhibition of N-terminal nanoLuc-tagged YEATS4 in HEK293T cells co-transfected with C-terminal halo-tagged histone 3.3 incubated for 24 hrs in presence of SAHA by NanoBRET assay; type: cell-based
Homo sapiens [9] = species: Homo sapiens; assay: Selectivity ratio of Ki for human recombinant YEATS2 to Ki for human recombinant YEATS4
[10] = target: T1, YEATS domain-containing protein 4; assay: Binding affinity to YEATS4 (unknown origin) assessed as dissociation constant by isothermal calorimetric analysis
[11] = Lipophilicity, logD of the compound by shake flask method; type: physicochemical; conditions: octanol/water
Homo sapiens [12] = species: Homo sapiens; assay: Selectivity ratio of Ki for human recombinant YEATS1 to Ki for human recombinant YEATS4
[13] = Cytotoxicity against human Bone marrow cell assessed as reduction in cell viability measured after 7 days; type: toxicity, cell-based; conditions: bone marrow cells
[14] = Tmax in mouse at 100 mg/kg, po; type: ADME, organism-based; conditions: in vivo
Protein AF-9 = target: T2, Protein AF-9 (Homo sapiens, UniProt P42568); assay: Inhibition of N-terminal nanoLuc-tagged YEATS3 in HEK293T cells co-transfected with C-terminal halo-tagged histone 3.3 incubated for 24 hrs in presence of SAHA by NanoBRET assay; type: cell-based
T2 sequence (P42568 whole entry): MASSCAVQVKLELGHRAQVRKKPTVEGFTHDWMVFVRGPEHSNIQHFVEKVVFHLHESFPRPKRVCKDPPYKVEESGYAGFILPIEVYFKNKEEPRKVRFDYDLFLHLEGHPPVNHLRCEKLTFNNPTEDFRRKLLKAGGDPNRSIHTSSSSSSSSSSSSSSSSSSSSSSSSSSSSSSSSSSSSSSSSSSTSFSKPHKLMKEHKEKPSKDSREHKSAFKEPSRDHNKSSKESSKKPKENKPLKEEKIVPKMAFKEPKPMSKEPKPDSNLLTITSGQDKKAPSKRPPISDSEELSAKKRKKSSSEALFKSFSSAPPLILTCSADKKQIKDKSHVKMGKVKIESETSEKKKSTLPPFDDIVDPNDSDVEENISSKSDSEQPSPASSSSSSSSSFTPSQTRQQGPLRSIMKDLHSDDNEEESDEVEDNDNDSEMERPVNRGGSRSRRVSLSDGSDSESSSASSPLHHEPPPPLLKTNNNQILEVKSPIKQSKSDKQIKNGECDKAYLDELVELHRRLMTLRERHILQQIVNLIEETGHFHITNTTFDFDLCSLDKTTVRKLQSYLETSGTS

[15] = AUC in mouse at 100 mg/kg, po; type: ADME, organism-based; design: dose 100 mg/kg, route po; conditions: in vivo
[16] = Half life in mouse at 100 mg/kg, po; type: ADME, organism-based; conditions: in vivo
[17] = Cmax in mouse at 100 mg/kg, po; type: ADME, organism-based; design: dose 100 mg/kg, route po; conditions: in vivo
[18] = target: T1, YEATS domain-containing protein 4; assay: Binding affinity to YEATS4 (unknown origin) assessed as change in enthalpy by isothermal calorimetric analysis
[19] = target: T1, YEATS domain-containing protein 4; assay: Binding affinity to YEATS4 (unknown origin) assessed as change in entropy by isothermal calorimetric analysis
[20] = Volume of distribution at steady state in mouse at 1 mg/kg, iv; type: ADME, organism-based; conditions: in vivo, read-out: Vdss
[21] = Oral bioavailability in rat at 3 mg/kg; type: ADME, organism-based; conditions: in vivo
[22] = Half life in rat at 3 mg/kg, po; type: ADME, organism-based; conditions: in vivo
[23] = Cmax in mouse at 3 mg/kg, po; type: ADME, organism-based; design: dose 3 mg/kg, route po; conditions: in vivo
[24] = Cmax in rat at 3 mg/kg, po; type: ADME, organism-based; design: dose 3 mg/kg, route po; conditions: in vivo
[25] = Half life in mouse at 3 mg/kg, po; type: ADME, organism-based; conditions: in vivo
[26] = Oral bioavailability in mouse at 3 mg/kg; type: ADME, organism-based; conditions: in vivo
[27] = AUC in rat at 3 mg/kg, po; type: ADME, organism-based; design: dose 3 mg/kg, route po; conditions: in vivo
[28] = Tmax in mouse at 3 mg/kg, po; type: ADME, organism-based; conditions: in vivo
[29] = Tmax in rat at 3 mg/kg, po; type: ADME, organism-based; conditions: in vivo
[30] = Volume of distribution at steady state in rat at 1 mg/kg, iv; type: ADME, organism-based; conditions: in vivo, read-out: Vdss
[31] = AUC in mouse at 3 mg/kg, po; type: ADME, organism-based; design: dose 3 mg/kg, route po; conditions: in vivo

T1 sequence (O95619 whole entry, the tested form may be a part): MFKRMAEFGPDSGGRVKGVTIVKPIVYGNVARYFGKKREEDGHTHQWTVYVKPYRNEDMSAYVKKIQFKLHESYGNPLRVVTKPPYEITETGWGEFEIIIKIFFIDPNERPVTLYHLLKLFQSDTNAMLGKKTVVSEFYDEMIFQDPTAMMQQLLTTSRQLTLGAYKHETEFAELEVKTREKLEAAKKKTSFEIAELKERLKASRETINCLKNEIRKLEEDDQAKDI

Row | SMILES | pKi [1] | pIC50 [2] | Ratio Ki (Homo sapiens [3]) | pKi [4] | hepatocyte CLint [5] | pKd [6] | Papp [7] | pIC50 [8] | Ratio Ki (Homo sapiens [9]) | pKd [10] | logD [11] | Ratio Ki (Homo sapiens [12]) | IC50 at 7 days [13] | further results
1 | CCNC(=O)c1ccc2c(c1)nc(C)n2[C@H]1CCN(CC2(O)CCCCC2)C[C@@H]1C | 7.20 | < 3.52 | 12 | 4.65 | 5.9 µL/min/1e6 cells | 6.28 | 0.119 ×10⁻⁶ cm/s | 6.54 | 17 | 7.10 | 2.4 | 16 | > 0.1 µM | 
2 | CCNC(=O)c1ccc2c([C@H]3CCN(CC4(O)CCCCC4)C[C@@H]3C)c(C)nn2c1 | 7.48 | < 3.52 | 14 | 5.33 | 4.1 µL/min/1e6 cells | 6.47 | 0.26 ×10⁻⁶ cm/s | 6.77 | 10 | 7.28 | 2.5 | 15 | > 0.05 µM | Tmax [14]: 0.5 h; pIC50 (Protein AF-9): 5.53; AUC [15]: 412 ng·h/mL; half-life [16]: 1.2 h; Cmax [17]: 9140 ng/mL; deltaH [18]: -15.1 kcal/mol; deltaH [19]: -17.4 cal/mol.K
3 | Cc1nn2cc(C(=O)NCC3CC3)ccc2c1[C@H]1CCN(CC2(O)CCOCC2)C[C@@H]1C | 7.37 | 3.57 | 106 | 5.13 | < 1.8 µL/min/1e6 cells |  | 0.154 ×10⁻⁶ cm/s |  | 16 |  | 2 | 133 |  | 
4 | CCNC(=O)c1ccc2c([C@H]3CCN(CC4(O)CCOCC4)C[C@@H]3C)c(C)nn2c1 | 7.43 | < 3.52 | 27 | 4.18 | < 1.8 µL/min/1e6 cells |  | 0.093 ×10⁻⁶ cm/s | 6.52 | 15 | 7.52 | 1.6 | 35 | > 0.05 µM | deltaH [18]: 13.3 kcal/mol; deltaH [19]: -11.1 cal/mol.K
5 | CCNC(=O)c1ccc2c(C3CCN(CC4(O)C5CC6CC(C5)CC4C6)CC3)c(C)nn2c1 (configuration not stated) | 7.68 | 3.91 | 25 | 5.46 | 33.7 µL/min/1e6 cells | 6.99 | 0.331 ×10⁻⁶ cm/s |  | 7 | 7.28 | 3.2 | 19 | 0.022 µM | pIC50 ([8]; hek293t): 6.70
6 | CCNC(=O)c1ccc2c(c1)[nH]c(=O)n2C1CCN(CC2(O)CCCCC2)CC1 | 6.55 | < 3.52 | 7 | 4.40 | 3.2 µL/min/1e6 cells |  | 0.021 ×10⁻⁶ cm/s |  | 14 |  | 1.7 | 8 |  | 
7 | CCNC(=O)c1ccc2c(c1)nc(C(F)F)n2[C@H]1CCN(CC2(O)CCCCC2)C[C@@H]1C | 7.23 | < 3.52 | 14 | 4.45 | 12.8 µL/min/1e6 cells | 6.53 | 0.271 ×10⁻⁶ cm/s | 6.14 | 17 | 7.35 | 3.1 | 19 | > 0.05 µM | Vd [20]: 7.8 L/kg; F [21]: 46%; Tmax [14]: 0.8 h; half-life [22]: 1.4 h; Cmax [23]: 1000 ng/mL; Cmax [24]: 487 ng/mL; half-life [25]: 4.9 h; F [26]: 68%; AUC [15]: 675 ng·h/mL; AUC [27]: 1150 ng·min/mL; half-life [16]: 1.2 h; Cmax [17]: 14000 ng/mL; Tmax [28]: 0.3 h; Tmax [29]: 0.4 h; Vd [30]: 2.6 L/kg; AUC [31]: 2150 ng·min/mL
8 | CCNC(=O)c1ccc2c(c1)nc(C)n2C1CCN(CC2(O)CCCCC2)CC1 | 6.85 | < 3.52 | 16 | 4.54 | 2.4 µL/min/1e6 cells |  | 0.108 ×10⁻⁶ cm/s |  | 11 |  | 1.9 | 19 |  | 
9 | CCNC(=O)c1ccc2c(C3CCN(CC4(O)CCCCC4)CC3)c(-c3cccn(C)c3=O)nn2c1 | 7.16 | < 3.52 | 15 | 4.44 | < 1.8 µL/min/1e6 cells |  | 0.006 ×10⁻⁶ cm/s |  | 4 |  | 0.09 | 19 |  | 
10 | CCNC(=O)c1ccc2c(C3CCN(CC4(O)CCCCC4)CC3)c(C)nn2c1 | 7.25 | < 3.52 | 23 | 5.33 | 3.2 µL/min/1e6 cells |  | 0.246 ×10⁻⁶ cm/s |  | 16 |  | 2 | 20 |  | 
11 | COC1(CN2CC[C@H](c3c(C)nn4cc(C(=O)NCC5CC5)ccc34)[C@@H](C)C2)CCOCC1 | 7.24 | < 3.52 | 160 | 4.78 | 16.4 µL/min/1e6 cells |  | 0.248 ×10⁻⁶ cm/s |  | 49 |  | 2.8 | 213 |  | 
12 | CCNC(=O)c1ccc2c(c1)nc(-c1cccn(C)c1=O)n2[C@H]1CCN(CC2(O)CCCCC2)C[C@@H]1C | 7.48 | < 3.52 | 4 | < 4.00 | < 1.8 µL/min/1e6 cells |  | 0.004 ×10⁻⁶ cm/s |  | 2 |  | 1.7 | 5 |  | 
